Assay results: patent US10093627B2, “Tetrahydroquinoline derivatives and their use as Epac inhibitors” (Institut National de la Sante et de la Recherche Medicale …, priority 2012, dated 2018)

Legend:
Epac1 = target: T1, Epac1 (Homo sapiens, UniProt O95398); experiment: In vitro GEF activity (initial velocity of GDP exchange on Rap1A) of Epac1; assay type: biochemical
T1 construct: Recombinant human Epac1 (residues 149-881), deleted of its Dishevelled, Egl-10, and Pleckstrin (DEP) domain; made in house
T1 sequence (O95398 149-881 isoform O95398-3): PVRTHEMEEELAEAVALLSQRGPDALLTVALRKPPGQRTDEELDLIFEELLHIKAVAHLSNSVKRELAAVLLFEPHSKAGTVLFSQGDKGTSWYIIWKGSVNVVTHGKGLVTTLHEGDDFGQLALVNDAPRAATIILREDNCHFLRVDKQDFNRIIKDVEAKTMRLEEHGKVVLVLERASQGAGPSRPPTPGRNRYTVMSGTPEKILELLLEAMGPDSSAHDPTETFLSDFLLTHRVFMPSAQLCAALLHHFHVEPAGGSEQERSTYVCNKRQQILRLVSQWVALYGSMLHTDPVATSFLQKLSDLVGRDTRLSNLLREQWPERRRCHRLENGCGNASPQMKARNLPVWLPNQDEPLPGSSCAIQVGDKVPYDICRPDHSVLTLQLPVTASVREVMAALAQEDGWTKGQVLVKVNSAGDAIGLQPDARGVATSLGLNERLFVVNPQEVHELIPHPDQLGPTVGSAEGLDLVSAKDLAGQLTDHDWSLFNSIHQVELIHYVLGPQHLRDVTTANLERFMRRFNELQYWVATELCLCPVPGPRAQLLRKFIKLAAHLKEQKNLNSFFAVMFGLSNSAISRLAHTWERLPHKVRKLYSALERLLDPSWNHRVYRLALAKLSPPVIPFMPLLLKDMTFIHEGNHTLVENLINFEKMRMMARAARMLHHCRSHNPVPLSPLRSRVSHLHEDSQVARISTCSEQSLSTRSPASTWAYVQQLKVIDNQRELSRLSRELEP
Procedure: Protein NCBI Reference Sequences for human Epac1 and Epac2 are NP_006096 and NP_008954, respectively. Recombinant human Epac1 (residues 149-881), deleted of its Dishevelled, Egl-10, and Pleckstrin (DEP) domain, and human Rap1A were produced with GST as a fusion tag (D. Courilleau et al., Identification of a tetrahydroquinoline analog as a pharmacological inhibitor of the cAMP-binding protein Epac, J. Biol. Chem. 287 (2012) 44192-44202).
In vitro GDP exchange catalyzed by Epac was measured using purified recombinant Epac isoforms and Rap1A loaded with Bodipy-GDP, as described in D. Courilleau, et al (above mentioned). The GEF activity of Epac proteins was initiated by injection of the agonist. Stock solutions of CE3F4 and its analogs (12 mM in 100% DMSO) were kept at −20° C. and were diluted in assay buffer (0.67% final DMSO concentration) just before use for GDP exchange assays. The release of Bodipy-GDP was measured in real time as the decay of fluorescence. A single exponential was fit to the time-course data using the Graphpad Prism program. The initial velocity (Vi) of GDP exchange on Rap1 was calculated as described in D. Courilleau et al.).
Data are expressed as mean±S.D. Differences in quantitative variables were examined by unpaired one- or two-tailed Student's t test. EC50 and IC50 values were computed according to a four-parameters dose-response model and compared on the basis of the extra sum-of square F test, using Graphpad Prism. Two-tailed Wilcoxon matched-pair signed rank tests were performed using GraphPad Prism.

Epac2(AB) = target: T2, Epac2(AB) (Homo sapiens, UniProt Q8WZA2); experiment: In vitro GEF activity (initial velocity of GDP exchange on Rap1A) of Epac2(AB); assay type: biochemical; conditions: 50 μM racemic CE3F4; agonist 50 μM 007 or 300 μM cAMP; FIG. 6A
T2 construct: Human Epac2(AB) (amino acids 43-1011) carries both the CNB-A and the CNB-B domains; made in house; host or cells: Escherichia coli Rosetta 2(DE3)
T2 sequence (Q8WZA2 43-1011): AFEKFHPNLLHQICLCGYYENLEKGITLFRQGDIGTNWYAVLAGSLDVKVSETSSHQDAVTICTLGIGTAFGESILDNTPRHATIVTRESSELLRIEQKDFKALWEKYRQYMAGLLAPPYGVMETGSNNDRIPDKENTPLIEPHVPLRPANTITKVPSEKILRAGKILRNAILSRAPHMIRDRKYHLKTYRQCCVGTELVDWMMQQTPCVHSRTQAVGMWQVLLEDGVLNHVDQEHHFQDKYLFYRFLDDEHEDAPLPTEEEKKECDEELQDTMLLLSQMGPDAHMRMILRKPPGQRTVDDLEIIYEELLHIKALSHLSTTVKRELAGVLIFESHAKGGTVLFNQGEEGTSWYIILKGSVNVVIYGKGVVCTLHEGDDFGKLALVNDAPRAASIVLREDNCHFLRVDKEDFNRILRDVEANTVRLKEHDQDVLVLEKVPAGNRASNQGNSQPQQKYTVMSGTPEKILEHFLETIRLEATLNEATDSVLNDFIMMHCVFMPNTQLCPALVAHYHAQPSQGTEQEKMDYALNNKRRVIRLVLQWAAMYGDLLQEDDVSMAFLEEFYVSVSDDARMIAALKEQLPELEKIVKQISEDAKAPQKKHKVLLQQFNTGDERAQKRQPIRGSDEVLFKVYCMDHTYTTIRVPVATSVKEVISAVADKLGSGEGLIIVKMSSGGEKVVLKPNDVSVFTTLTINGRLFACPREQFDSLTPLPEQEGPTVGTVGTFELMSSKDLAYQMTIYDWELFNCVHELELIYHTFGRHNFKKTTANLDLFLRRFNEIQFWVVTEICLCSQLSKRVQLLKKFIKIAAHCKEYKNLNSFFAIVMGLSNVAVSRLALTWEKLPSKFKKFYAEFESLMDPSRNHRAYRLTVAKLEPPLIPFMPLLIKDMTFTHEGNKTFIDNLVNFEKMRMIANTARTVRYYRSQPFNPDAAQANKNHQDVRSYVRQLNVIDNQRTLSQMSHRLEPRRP
Excerpt: Human Epac2(AB) (amino acids 43-1011) carries both the CNB-A and the CNB-B domains. Human Epac2(B) (amino acids 283-1011) lacks the first 283 amino acids of Epac2. It is therefore deleted of its CNB-A and DEP domains, but retains the CNB-B domain and the full catalytic region. Epac2(AB) was obtained by HindIII/NotI restriction and Epac2(B) was obtained by Ssp1/Not1 restriction of a human Epac2A cDNA (a gift from Ann M Graybiel, Department of Brain and Cognitive Sciences, MIT, Cambridge). Both cDNA fragments were inserted into pET41a (Novagen), expressed in Escherichia coli Rosetta 2(DE3) (Novagen), and the GST-tagged fusion proteins were purified by nickel-nitrilotriacetic acid beads (Qiagen), as described in D. Courilleau, et al., Identification of a tetrahydroquinoline analog as a pharmacological inhibitor of the cAMP-binding protein Epac, J. Biol. Chem. 287 (2012) 44192-44202).
In vitro GDP exchange catalyzed by Epac was measured using purified recombinant Epac isoforms and Rap1A loaded with Bodipy-GDP, as described in D. Courilleau, et al (above mentioned). […] The release of Bodipy-GDP was measured in real time as the decay of fluorescence. […] The initial velocity (Vi) of GDP exchange on Rap1 was calculated as described in D. Courilleau et al.).
Data are expressed as mean±S.D. Differences in quantitative variables were examined by unpaired one- or two-tailed Student's t test. […]

CC1CCc2c(cc(Br)c(F)c2Br)N1C=O (racemic) [CE3F4]
Inhibition of GEF activity of Epac1 compared with Epac2(AB) or Epac2(B) (Epac1; 50 μM racemic CE3F4, agonist 50 μM 007 or 300 μM cAMP, FIG. 6A): much more inhibited
EC50 (Epac1; Epac1 GEF activity toward Rap1, Epac1 activated by 20 μM 007, mean of n=4 to 9 independent determinations): 10.7 µM
IC50 (Epac1; Epac1 activated by 300 μM cAMP): 11 µM
Antagonism of cAMP-activated Epac1 GEF activity (Epac1; compound 30 μM, 300 μM cAMP, FIG. 6C): stronger antagonist
Inhibitory effect on GEF activity of Epac2(AB), compared with Epac2(B) (Epac2(AB)): no significant difference
